Test results published in the supplement of paper PMC8882468.

Experiments:
Test in all cases: CTG-3D luminescence at 96 h relative to day-0 seeding control (ratio to day 0); higher = more growth / less cytotoxicity; PDxO 3D drug screen, 96 h, CTG-3D normalised to day-0 seeding control.
HCI-003.E2 = tested on: HCI-003.E2 (organoid from an ER-positive breast cancer xenograft)
HCI-005.E2 = tested on: HCI-005.E2 (organoid from a breast cancer xenograft with a HER2-positive history)
HCI-011.E2 = tested on: HCI-011.E2 (organoid from an ER-positive breast cancer xenograft)
HCI-016 = tested on: HCI-016 (organoid from a triple-negative breast cancer xenograft)
HCI-019 = tested on: HCI-019 (organoid from a triple-negative breast cancer xenograft)
HCI-025 = tested on: HCI-025 (organoid from a breast cancer xenograft)

CNC(=O)c1cccc(-c2ccc3c(N4CCOC[C@@H]4C)nc(N4CCOC[C@@H]4C)nc3n2)c1 [vistusertib]
CTG-3D luminescence at 96 h
Settings | 12.5 pM | 0.00025 µM | 0.005 µM | 0.1 µM | 1 µM | 10 µM | 100 µM | 625 fM
HCI-003.E2 | 2.24 | 2.07 | 2.3 | 1.4 | 0.0994 | 0.0512 | 0.0137 | 2.1
HCI-005.E2 | 1.89 | 2.02 | 2.14 | 2.05 | 0.528 | 0.53 | 0.57 | 1.98
HCI-011.E2 | 1.477 | 1.841 | 1.52 | 1.23 | 0.256 | 0.212 | 0.057 | 1.59

CTG-3D luminescence at 96 h
Settings | 12.5 pM | 0.00025 µM | 0.005 µM | 0.1 µM | 1 µM | 10 µM | 100 µM | 625 fM
HCI-011.E2, days in culture: 74 | 3.1 | 2.54 | 2.03 | 1 | 0.26 | 0.247 | 0.0598 | 2.38
HCI-016, days in culture: 153 | 2.83 | 1.97 | 2.44 | 1.36 | 1.01 | 1.52 | 0.486 | 1.72
HCI-016, days in culture: 172 | 2.41 | 1.96 | 1.67 | 1.67 | 0.7 | 0.422 | 0.424 | 1.42
HCI-016, days in culture: 190 | 1.92 | 1.44 | 1.77 | 1.19 | 0.838 | 0.424 | 0.374 | 1.44
HCI-016, days in culture: 199 | 1.72 | 1.65 | 1.77 | 1.76 | 0.654 | 0.556 | 0.348 | 1.81
HCI-019, days in culture: 110 | 1.84 | 1.95 | 1.82 | 1.67 | 0.591 | 0.882 | 0.492 | 2.38
HCI-019, days in culture: 131 | 2.64 | 4.03 | 2.46 | 2.64 | 0.938 | 1.24 | 0.736 | 3.83
HCI-019, days in culture: 152 | 2.51 | 2.65 | 3.11 | 1.64 | 0.846 | 0.759 | 0.555 | 2.52
HCI-025, days in culture: 172 | 2.8 | 1.41 | 1.7 | 0.95 | 0.649 | 0.279 | 0.41 | 2.26
HCI-025, days in culture: 209 | 1.74 | 2.05 | 2.28 | 0.89 | 0.395 | 0.287 | 0.239 | 2.1
HCI-025, days in culture: 218 | 1.49 | 1.78 | 1.94 | 0.816 | 0.249 | 0.373 | 0.201 | 1.44
